From patent US20100004159A1, “SUBSTITUTED IMIDAZOLONE DERIVATIVES, PREPARATIONS AND USES” (GENFIT, priority 2006, published 2010)

How the values were obtained:
hPPARα = biological target: T1, hPPARα (Homo sapiens, UniProt Q07869); assay: Gal4-hPPARα transactivation in COS-7 cells (luciferase); assay type: cell-based; details: for EC50: Gal4-hPPARα chimera, COS-7 cells, 24 hours
T1 construct: DNA fragments amplified by PCR and corresponding to the DEF domains of human PPARα, PPARγ, and PPARδ nuclear receptors; expressed in transfected cells; host or cells: COS-7
T1 sequence (Q07869 239-466 limits assumed): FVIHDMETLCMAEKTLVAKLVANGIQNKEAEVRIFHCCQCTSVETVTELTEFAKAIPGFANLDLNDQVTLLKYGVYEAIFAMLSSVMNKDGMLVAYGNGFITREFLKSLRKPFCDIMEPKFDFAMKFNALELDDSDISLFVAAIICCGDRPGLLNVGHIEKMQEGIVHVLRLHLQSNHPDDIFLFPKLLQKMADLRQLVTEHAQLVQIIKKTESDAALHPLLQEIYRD
Procedure: The activation of PPARs was evaluated in vitro using a monkey kidney fibroblast line (COS-7) by measuring the transcriptional activity of chimeras made up of the DNA binding domain of the Gal4 transcription factor of yeast and of the binding domain to the ligand of the different PPARs. The compounds were tested at doses of between 0.01 and 100 μM on Gal4-PPARα, γ, and δ chimeras.
COS-7 cells came from ATCC (American type culture collection) and were cultivated in a DMEM medium supplemented with 10% (vol/vol) of fetal calf serum, 100 U/ml of penicillin (Gibco, Paisley, UK) and 2 mM of L-Glutamine (Gibco, Paisley, UK). The cells were incubated at 37° C. under humid atmosphere containing 5% CO2.
The plasmids Gal4(RE)_TkpGL3, pGal4-hPPARα, pGal4-hPPARγ, pGal4-hPPARδ and pGal4-φ have been described in the literature (Raspe E et al., 1999). The constructions pGal4-hPPARα, pGal4-hPPARγ, and pGal4-hPPARδ were obtained by cloning, in the pGal4-φ vector, DNA fragments amplified by PCR and corresponding to the DEF domains of human PPARα, PPARγ, and PPARδ nuclear receptors.
The COS-7 cells in suspension were transfected with 150 ng of DNA per well, with a pGal4-PPAR/Gal4(RE)_TkpGL3 ratio of 1/10, in presence of 10% fetal calf serum. The cells were then plated in 96-well plates (4×10^4 cells/well), then incubated for 24 hours at 37° C. Activation with the test compounds was performed for 24 hours at 37° C. in a medium without serum. At the end of the experiment, the cells were lysed and the luciferase activity was determined using the Steady-Lite™ HTS (Perkin Elmert) or the Steady Glow Luciferase kit (Promega), in accordance with the provider's recommendations.
The compounds according to the invention were tested at doses between 0,01 and 100 μM on the 3 PPAR isoforms. The results obtained are presented in detail under FIG. 1a.

[1] = tested on: Wistar rats under repeated administrations of angiotensin II; assay: Arterial pressure of Wistar rats under repeated administration of angiotensin II; assay type: in vivo, rat; details: angiotensin II boluses 50, 100 and 200 ng/kg; single intravenous dose 20 mpk
Procedure: This experimental procedure is intended to show the anti-hypertensive effects of the compounds according to the invention in Wistar rats in which hypertension is induced either by continuous intravenous administration of angiotensin II (example 21.1) or by repeated intravenous administration of angiotensin II (example 21.2). The animals were treated with the compounds according to the invention intravenously at increasing doses. To validate the study, the control animals were administered, in the same conditions, either the vehicle itself or a reference.
Wistar rats (males—200-250 g—5-6 weeks old—CERJ) were anesthetized for surgery using pentobarbital (50 mg/kg). A catheter was placed in the right jugular vein for angiotensin II administration. A catheter was placed in the left jugular vein the administration of the compounds according to the invention. Boluses of angiotensin II were performed at predetermined intervals by the experimenter using a manual syringe.
The arterial pressure of the animal was measured for a few minutes at basal conditions; then three successive intravenous administrations of angiotensin II (50, 100, and 200 ng/kg) were performed. At every bolus of angiotensin II, the average arterial pressure, expressed in mm of Hg, increased in a very temporary way. […]

ApoE2/E2 mouse = assay: Plasma lipids and cholesterol distribution in dyslipidemic ApoE2/E2 mouse; assay type: in vivo; details: for total cholesterol level / triglyceride level: 7 days per os
Procedure: The hypolipemic properties of the compounds according to the invention were evaluated in vivo by assaying plasma lipids and by an analysis of the gene expression of PPARs target genes, in the liver after a treatment of the dyslipidemic E2/E2 mice with the compounds according to the invention.
The murine model used is the ApoE2/E2 mouse, a transgenic mouse having human apolipoprotein E isoform E2 (Sullivan P M et al., 1998). In human, this apolipoprotein, a constituent of the low and the very low density lipoproteins (LDL-VLDL), exists in three isoforms E2, E3, and E4. The E2 form has a mutation affecting the amino acid of position 158, which considerably weakens the affinity of this protein for the receptors to LDL., the VLDL clearance is nearly non-existent.
The ApoE2/E2 transgenic mice were kept on a 12 hour/12 hour light/dark cycle at a constant temperature of 20±3° C. After a one week acclimatization period, the mice were weighed and divided into groups of 5 animals selected so as to render uniform the distribution of their body weights and their plasma lipid levels, determined before the experiment. The tested compounds were suspended in carboxymethylcellulose (Sigma C4888) and administered by intra-gastric tube feeding, once a day for 7 days at the chosen dose. The animals had free access to food and water. At the end of the experiment, the animals were anesthetized after a 4 hour fast, a blood sample was taken using anticoagulant (EDTA), then the mice were weighed and euthanized. The plasma was separated by centrifugation at 3000 rotations/minute for 20 minutes. The samples were kept at +4° C.
Plasma lipid concentrations (total cholesterol and triglycerides) were measured by enzymatic assays (bioMerieux-Lyon-France) according to the provider's recommendations.
The different lipid fractions (VLDL, LDL,HDL) of the plasma were separated by gel-filtration chromatography. The concentrations of cholesterol of each fraction were then measured by enzymatic assays (bioMerieux-Lyon-France) according to the provider's recommendations.

[2] = 7-day treatment, 10, 30 and 100 mpk

| Compound | activation of hPPARα (luciferase activity) (hPPARα; COS-7 cells transfected pGal4-hPPAR, 0.01 to 100 μM) | EC50 (hPPARα) [µM] | difference of arterial pressure: antagonist effect on angiotensin II [1] | total cholesterol level (ApoE2/E2 mouse; 25, 50, 100 and 200 mpk) | triglyceride level (ApoE2/E2 mouse; 25, 50, 100 and 200 mpk) | HDL-cholesterol fraction (ApoE2/E2 mouse; [2]) | cholesterol in VLDL and LDL fractions (ApoE2/E2 mouse; [2]) | total cholesterol level (ApoE2/E2 mouse; 10, 30 or 100 mpk) | triglyceride level (ApoE2/E2 mouse; 10, 30 or 100 mpk) |
| --- | --- | --- | --- | --- | --- | --- | --- | --- | --- |
| CCCCC1=NC2(CCCC2)C(=O)N1Cc1ccc(-c2cccc(OC(C)(C)C(=O)O)c2)cc1 [Compound 1, 2-butyl-1-[(3′-((1-carboxy-1,1-dimethylmethyl)oxy)biphenyl-4-yl)methyl]-4-spirocyclopentyl-1H-imidazol-5(4H)-one] | activate the two PPAR isoforms | 3 | antagonist effect on angiotensin II | remarkable dose-dependently decrease | remarkable dose-dependently decrease |  |  |  |  |
| CCCCC1=NC2(CCCCC2)C(=O)N1Cc1ccc(-c2cccc(OC(C)(C)C(=O)O)c2)cc1 [Compound 21, 2-butyl-1-[(3′-((1-carboxy-1,1-dimethylmethyl)oxy)biphenyl-4-yl)methyl]-4-spirocyclohexyl-1H-imidazol-5(4H)-one] |  | 0.6 |  |  |  | significant increase | significant decrease | remarkable dose-dependently decrease | remarkable dose-dependently decrease |
